Patent US9649324B2, “Use of tylvalosin as antiviral agent” (ECO ANIMAL HEALTH LIMITED, priority 2006, dated 2017)

Experiments:
[1] = test system: HRT-18 cells; assay: Intracellular accumulation of macrolides in HRT-18 cells; format: in vitro ADME, human; conditions: for average intracellular concentration / intracellular:extracellular ratio: 10 μg/mL antibiotic
Protocol: HRT-18 cells, in 6 cm tissue cultures dishes, were incubated in the presence of 0.5, 5 or 50 μg/mL tylvalosin. After 4 h, two dishes for each tylvalosin concentration and two dishes without antibiotic were removed from the incubator. A sample of medium (about 1 mL) was removed, placed in a labelled Eppendorf tube and stored at −20° C. The rest of the medium was then removed. Each of the cell monolayers was washed twice in PBS, using approximately 5 mL for each wash. The plunger from a 2 mL plastic syringe was used to gently scrape off the cells. PBS (500 μL) was added to the dish and the cells gently removed into this medium, using a micropipette. The sample was then placed in an Eppendorf tube and centrifuged at 8000×g in a bench centrifuge (Biofuge pico, Heraeus instruments) for 13 sec. An obvious cell pellet formed. The supernatant was removed using a micropipette and the cell material was stored at −20° C. in a labelled Eppendorf tube. After approximately 24 h the remaining tissue culture dishes were removed from the incubator and treated as described above for the 4 h samples. All the samples, including the 4 h samples, were then stored at −70° C.
HRT-18 cells were prepared as described above and used at passage 42. Stock solutions of antibiotics (either tylvalosin, tylosin or tilmicosin) were diluted in growth media and 10 μg/mL each antibiotic was added to the confluent cell monolayers. The cells were incubated at 37° C. in a 5% CO2 atmosphere for either 4 h or 24 h. The media and cells were harvested and tested for antibiotic, as described above.
(§1) All the supernatant and cell samples were transported frozen (at approximately −20° C.) to York Bioanalytical Solutions (York, England) for analysis. Briefly, 0.25 g of buffer (RPMI medium containing 10% FCS) was weighed into a polypropylene tube. A 50 μL volume of the appropriate working solution was added to the quality control (QC) samples. Methanol (50 μL) was added to each blank sample used for preparation of calibration standards, recovery samples and reagent blanks. A 2.5 mL volume of 0.1 M phosphate buffer was added to each sample, vortex mixed for approximately 1 min and then centrifuged at 3220×g for 10 min at 4° C.
(§2) For the liquid-liquid clean-up phase, an aliquot (100 μL) of the supernatant was transferred to a polypropylene tube. The pH was adjusted to pH 8-8.5 by the addition of 0.1 M NaOH, and vortex mixed. Ethyl acetate (5 mL) was added and after capping, the whole mixture was shaken for 10 min and then centrifuged at 3220×g for 10 min at 4° C.
(§3) Ammonium acetate (20 mM; pH native)—formic acid, 1000:3, v/v (100 μL) was added to each well in a 2 mL polypropylene collection plate. An aliquot of the ethyl acetate mixture (100 μL) was transferred to the polypropylene collection plate and evaporated under nitrogen (40° C.) until the ethyl acetate was fully evaporated whilst the ammonium acetate remained. Methanol (100 μL) was added to each well, excluding the calibration standards.
(§4) To each well containing a calibration standard, 100 μL of the appropriate calibration working solution was added. Samples were then vortex mixed for at least 10 min and submitted for liquid chromatography with tandem mass spectrometric analysis. The method stated was applicable to the samples of media (and the calibration standards and quality control samples).
(§5) For the cells, the sample tubes were weighed, and 100 μL of acetonitrile was added. The samples were vortex mixed for 10 sec, then centrifuged at 10285×g at 4° C. for 5 min. The sample was transferred to a polypropylene tube. The original sample tube was washed with 0.1 M phosphate buffer (1 mL). This was transferred to the polypropylene tube. A second wash of 1 mL was made, then a final wash of 0.5 mL. The polypropylene tube was now at the same stage as the end of the liquid extraction, but with the cells present rather than media. This was then taken through the sample preparation as described above. […]

[2] = test system: pig white blood cells; assay: Intracellular accumulation in pig white blood cells; format: in vitro ADME
Protocol: Pig blood was collected in Heparin-coated BD vacutainers (6). 20 mL of blood and 30 mL of phosphate buffered saline (PBS) were mixed in a 50 mL conical centrifuge tube. This was repeated in order to obtain 3 such tubes. The mixtures were centrifuged for 10 min at 2050×g. The white blood cells, together with some red blood cells below, were harvested into a 50 mL conical centrifuge tube. PBS was added to about 50 mL. A 63% solution of Percoll was made as follows: 6.3 mL Percoll (Sigma), 1.0 mL 1.5 M NaCl, 2.7 mL H2O. 10 mL of 63% Percoll was added to each of two 50 mL conical centrifuge tubes. 25 mL of the resuspended white blood cells were carefully layered on top of the each of the Percoll solutions. A sharp interface was produced. The material was centrifuged at 3000×g for 10 min. […] The white blood cells were harvested in PBS (50 mL) and centrifuged at 500×g for 10 min. The cell pellet was resuspended in medium (Glasgow minimum essential medium containing penicillin and streptomycin). A viable cell count was made using trypan blue. The same method used for isolation of pig WBCs was used for the chicken WBCs, with the exception that heparin (100 I.U./mL) was prepared and mixed with an equal volume of chicken whole blood.
Cells were incubated with 10 mg/mL of each antibiotic. All tubes were placed on a rotary mixing machine, at 37° C. Supernatant and cell samples were harvested at the times described in the figure legends. Duplicate samples were used for each antibiotic for each time point.
as §1, §2, §3, §4, §5

[3] = test system: equine influenza strain Miami; format: cell-based; conditions: 1 μg/ml, 4 h pretreatment, moi 10, fixed 4 h post infection
[4] = test system: PR8 strain of influenza A virus; assay: Influenza infection of MDCK cells, immunofluorescence (Example 4), strain PR8; format: cell-based, human influenza; conditions: 1 μg/ml, 4 h pretreatment, moi 10, fixed 4 h post infection
[5] = test system: influenza strain Udorn; assay: Influenza virus time course in MDCK cells, immunofluorescence and plaque assay (Example 12); format: cell-based
[6] = previous study (Tsuchiya et al., 1981); cited from earlier work
[7] = test system: VR2332 (US strain of PRRSV); assay: VR2332 (US strain of PRRSV) entry assay in MA104 cells (Example 10); conditions: 4 h pretreatment, moi 10, overnight

**Q.** With `CCC1OC(=O)CC(OC(C)=O)C(C)C(OC2OC(C)C(OC3CC(C)(O)C(OC(=O)CC(C)C)C(C)O3)C(N(C)C)C2O)C(CC=O)CC(C)C(=O)C=CC(C)=CC1COC1OC(C)C(O)C(OC)C1OC` (stereo not drawn) [tylvalosin, 3-O acetyl-4″-O-isovaleryltylosin] as the compound, how does the average intracellular concentration ([1]; HRT-18 cells, 4 h) read?
**A.** The average intracellular concentration was 61.8 μg/mg cells.

**Q.** What about the “intracellular:extracellular ratio” value ([1]; HRT-18 cells, 4 h) of the same compound?
**A.** Its value is 5.13 fold.

**Q.** What about the average intracellular concentration ([1]; HRT-18 cells, 24 h) of the same compound?
**A.** The average intracellular concentration was 57.6 μg/mg cells.

**Q.** And the “intracellular:extracellular ratio” value ([1]; HRT-18 cells, 24 h)?
**A.** Its value is 5.34 fold.

**Q.** What about the “concentration of tylvalosin accumulated in the cells” value ([1]; HRT-18 cells, 0.5, 5 or 50 μg/mL tylvalosin, within 4 h) of the same compound?
**A.** The value was “at least 585 μg”.

**Q.** What about the “cell:medium concentration ratio” value ([1]; HRT-18 cells, 24 h incubation, compared with 4 h) of the same compound?
**A.** Its value is “lower”.

**Q.** And the average intracellular concentration ([2]; 10 min)?
**A.** The average intracellular concentration was 57.4 μg/mg cells.

**Q.** What about the “average intracellular:extracellular ratio (IC:EC)” value ([2]; 10 min) of the same compound?
**A.** Its value is 8.68.

**Q.** And the “average intracellular:extracellular ratio (IC:EC)” value ([2]; 10 min, listed as Tylvalosin)?
**A.** Its value is 9.

**Q.** And the intracellular concentration ([2]; 20 min)?
**A.** The intracellular concentration was 61.45 μg/mg cells.

**Q.** And the “inhibition of infection of MDCK cells” value [3]?
**A.** The value was 92%.

**Q.** And the “inhibition of infection of MDCK cells” value [4]?
**A.** Its value is “completely inhibited”.

**Q.** What about the “influenza strain Udorn infection over the 24 hour period (immunofluorescence and plaque assay)” value [5] of the same compound?
**A.** The value was “inhibited”.

**Q.** What about the lipophilicity [6] of the same compound?
**A.** Its lipophilicity is “more lipophilic than either tylosin or 3AT”.

**Q.** And the “inhibition of VR2332 infection” value [7]?
**A.** The value was “sensitive”.
